Experimental data taken from patent US20200407717A1, “METHODS OF MODULATING ANTISENSE ACTIVITY” (Ionis Pharmaceuticals, Inc., priority 2018, published 2020).
e = 2'-O-(2-methoxyethyl) (MOE); d = 2'-deoxy (DNA)

System: Drosha mRNA
Test: Antisense activity by RT-qPCR, Drosha, A431 cells
Assay type: cell-based, Human
Description: A431 cells were grown at 10,000 cells per well and pre-treated with a variety of growth factors to determine if the addition of exogenous growth factors affects antisense activity or uptake of modified antisense oligonucleotides in a cell. The growth factors used were EGF, insulin growth factor (IGF), transforming growth factor (TGF), […] (VEGF), hepatocyte growth factor (HGF), platelet growth factor (PGF) and fibroblasts growth factor (FGF). To test antisense activity, cells were treated for 4 hours with a growth factor or vehicle alone, and then treated with compound no. 25690 (complementary to Drosha), compound no. 395254 (complementary to Malat1), or vehicle alone. RNA was isolated from the cells and Drosha or Malat1 RNA levels were measured by RT-qPCR. Human primer probe set 13816 (forward sequence […], designated herein as SEQ ID NO: 3; reverse sequence […], designated herein as SEQ ID NO: 4; probe sequence […], designated herein as SEQ ID NO: 5) was used to measure Drosha mRNA levels and primer probe set RTS2736 (forward sequence […], designated herein as SEQ ID NO: 6; reverse sequence […], designated herein as SEQ ID NO: 7; probe sequence TGCCACATCGCCACCCCGT, designated herein as SEQ ID NO: 8) was used to measure Malat1 RNA levels. Drosha and Malat1 RNA levels were normalized to total RNA content, as measured by RIBOGREEN®. Results are presented in the tables below as normalized RNA levels, relative to untreated control cells.
A431 cells were treated with EGF or TGF at 200 ng/mL in the presence or absence of 1 μM of the EGFR tyrosine kinase inhibitor PD174265. The cells were then treated with compound no. 25690 or compound no. 395254 as in Example 8. Total RNA was isolated and analyzed by RT-qPCR, as in Example 8.
Following siRNA treatment, cells were treated with compound no. 25690 or compound no. 395254 in the presence or absence of EGF. 16 hours after treatment with a PS-ASO with or without EGF, cells were harvested, and RNA levels were analyzed via RT-qPCR as in Example 8.

## AGGAAGGAAGCTGGCGATCT (sugars from the 5' end e5 d10 e5, all phosphorothioate, methylation of C not given here) [compound 25690]
6250 nM, Control
  Drosha mRNA (% Control): 66.2 % Control
6250 nM, Control Luciferase siRNA
  Drosha mRNA (% Control): 35.2 % Control
6250 nM, Control Luciferase siRNA, Table 26
  Drosha mRNA (% Control): 47.8 % Control
6250 nM, Control luciferase + EGF
  Drosha mRNA (% Control): 40.9 % Control
6250 nM, Control, Table 20
  Drosha mRNA (% Control): 54.0 % Control
6250 nM, EGF
  Drosha mRNA (% Control): 48.4 % Control
6250 nM, EGF+PD174265
  Drosha mRNA (% Control): 64.7 % Control
6250 nM, EGFR siRNA-1
  Drosha mRNA (% Control): 41.9 % Control
6250 nM, EGFR siRNA-2
  Drosha mRNA (% Control): 39.2 % Control
6250 nM, EGFR siRNA-2 + EGF
  Drosha mRNA (% Control): 62.5 % Control
6250 nM, EGFR siRNA-2, Table 26
  Drosha mRNA (% Control): 64.8 % Control
6250 nM, TGF
  Drosha mRNA (% Control): 43.1 % Control
6250 nM, TGF+PD174265
  Drosha mRNA (% Control): 57.0 % Control
10000 nM, Control
  Drosha mRNA (% Control): 48.2 % Control
10000 nM, EGF
  Drosha mRNA (% Control): 27.7 % Control
10000 nM, TGF
  Drosha mRNA (% Control): 29.7 % Control
12500 nM, Control
  Drosha mRNA (% Control): 56.4 % Control
12500 nM, Control Luciferase siRNA
  Drosha mRNA (% Control): 29.3 % Control
12500 nM, Control Luciferase siRNA, Table 26
  Drosha mRNA (% Control): 41.0 % Control
12500 nM, Control luciferase + EGF
  Drosha mRNA (% Control): 30.9 % Control
12500 nM, Control, Table 20
  Drosha mRNA (% Control): 47.6 % Control
12500 nM, EGF
  Drosha mRNA (% Control): 40.1 % Control
12500 nM, EGF+PD174265
  Drosha mRNA (% Control): 53.6 % Control
12500 nM, EGFR siRNA-1
  Drosha mRNA (% Control): 32.4 % Control
12500 nM, EGFR siRNA-2
  Drosha mRNA (% Control): 39.1 % Control
12500 nM, EGFR siRNA-2 + EGF
  Drosha mRNA (% Control): 47.1 % Control
12500 nM, EGFR siRNA-2, Table 26
  Drosha mRNA (% Control): 49.2 % Control
12500 nM, TGF
  Drosha mRNA (% Control): 29.7 % Control
12500 nM, TGF+PD174265
  Drosha mRNA (% Control): 44.9 % Control
20000 nM, Control
  Drosha mRNA (% Control): 48.8 % Control
20000 nM, EGF
  Drosha mRNA (% Control): 25.4 % Control
20000 nM, TGF
  Drosha mRNA (% Control): 25.5 % Control
25000 nM, Control
  Drosha mRNA (% Control): 45.2 % Control
25000 nM, Control Luciferase siRNA
  Drosha mRNA (% Control): 24.0 % Control
25000 nM, Control Luciferase siRNA, Table 26
  Drosha mRNA (% Control): 37.2 % Control
25000 nM, Control luciferase + EGF
  Drosha mRNA (% Control): 27.1 % Control
25000 nM, Control, Table 20
  Drosha mRNA (% Control): 38.9 % Control
25000 nM, EGF
  Drosha mRNA (% Control): 40.1 % Control
25000 nM, EGF+PD174265
  Drosha mRNA (% Control): 51.2 % Control
25000 nM, EGFR siRNA-1
  Drosha mRNA (% Control): 29.9 % Control
25000 nM, EGFR siRNA-2
  Drosha mRNA (% Control): 35.5 % Control
25000 nM, EGFR siRNA-2 + EGF
  Drosha mRNA (% Control): 41.2 % Control
25000 nM, EGFR siRNA-2, Table 26
  Drosha mRNA (% Control): 42.3 % Control
25000 nM, TGF
  Drosha mRNA (% Control): 23.5 % Control
25000 nM, TGF+PD174265
  Drosha mRNA (% Control): 37.1 % Control
40000 nM, Control
  Drosha mRNA (% Control): 44.3 % Control
40000 nM, EGF
  Drosha mRNA (% Control): 23.6 % Control
40000 nM, TGF
  Drosha mRNA (% Control): 22.7 % Control
50000 nM, Control
  Drosha mRNA (% Control): 40.2 % Control
50000 nM, Control Luciferase siRNA
  Drosha mRNA (% Control): 22.4 % Control
50000 nM, Control Luciferase siRNA, Table 26
  Drosha mRNA (% Control): 33.1 % Control
50000 nM, Control luciferase + EGF
  Drosha mRNA (% Control): 23.2 % Control
50000 nM, Control, Table 20
  Drosha mRNA (% Control): 28.2 % Control
50000 nM, EGF
  Drosha mRNA (% Control): 35.1 % Control
50000 nM, EGF+PD174265
  Drosha mRNA (% Control): 45.3 % Control
50000 nM, EGFR siRNA-1
  Drosha mRNA (% Control): 25.7 % Control
50000 nM, EGFR siRNA-2
  Drosha mRNA (% Control): 31.2 % Control
50000 nM, EGFR siRNA-2 + EGF
  Drosha mRNA (% Control): 31.3 % Control
50000 nM, EGFR siRNA-2, Table 26
  Drosha mRNA (% Control): 29.3 % Control
50000 nM, TGF
  Drosha mRNA (% Control): 17.2 % Control
50000 nM, TGF+PD174265
  Drosha mRNA (% Control): 35.2 % Control
100000 nM, Control
  Drosha mRNA (% Control): 39.2 % Control
100000 nM, Control Luciferase siRNA
  Drosha mRNA (% Control): 19.7 % Control
100000 nM, Control Luciferase siRNA, Table 26
  Drosha mRNA (% Control): 32.1 % Control
100000 nM, Control luciferase + EGF
  Drosha mRNA (% Control): 21.0 % Control
100000 nM, Control, Table 20
  Drosha mRNA (% Control): 25.2 % Control
100000 nM, EGF
  Drosha mRNA (% Control): 32.9 % Control
100000 nM, EGF+PD174265
  Drosha mRNA (% Control): 35.2 % Control
100000 nM, EGFR siRNA-1
  Drosha mRNA (% Control): 24.1 % Control
100000 nM, EGFR siRNA-2
  Drosha mRNA (% Control): 28.4 % Control
100000 nM, EGFR siRNA-2 + EGF
  Drosha mRNA (% Control): 30.4 % Control
100000 nM, EGFR siRNA-2, Table 26
  Drosha mRNA (% Control): 31.2 % Control
100000 nM, TGF
  Drosha mRNA (% Control): 15.2 % Control
100000 nM, TGF+PD174265
  Drosha mRNA (% Control): 30.2 % Control
200000 nM, Control
  Drosha mRNA (% Control): 30.2 % Control
200000 nM, Control Luciferase siRNA
  Drosha mRNA (% Control): 14.9 % Control
200000 nM, Control Luciferase siRNA, Table 26
  Drosha mRNA (% Control): 25.2 % Control
200000 nM, Control luciferase + EGF
  Drosha mRNA (% Control): 21.4 % Control
200000 nM, Control, Table 20
  Drosha mRNA (% Control): 21.2 % Control
200000 nM, EGF
  Drosha mRNA (% Control): 25.1 % Control
200000 nM, EGF+PD174265
  Drosha mRNA (% Control): 33.2 % Control
200000 nM, EGFR siRNA-1
  Drosha mRNA (% Control): 18.5 % Control
200000 nM, EGFR siRNA-2
  Drosha mRNA (% Control): 20.8 % Control
200000 nM, EGFR siRNA-2 + EGF
  Drosha mRNA (% Control): 25.1 % Control
200000 nM, EGFR siRNA-2, Table 26
  Drosha mRNA (% Control): 26.1 % Control
200000 nM, TGF
  Drosha mRNA (% Control): 15.2 % Control
200000 nM, TGF+PD174265
  Drosha mRNA (% Control): 27.2 % Control
Control (no growth factor), Table 15
  IC50: 1470 ± 50 nM
Control Luciferase siRNA, Table 24
  IC50: 1310 ± 40 nM
Control Luciferase siRNA, Table 26
  IC50: 1500 ± 50 nM
Control luciferase + EGF, Table 26
  IC50: 630 ± 40 nM
Control, Table 18
  IC50: 1620 ± 90 nM
Control, Table 20
  IC50: 1390 ± 60 nM
EGF 200 ng/mL + 1 μM PD174265, Table 18
  IC50: 1500 ± 50 nM
EGF 200 ng/mL, Table 18
  IC50: 580 ± 70 nM
EGF pre-treatment 4 hours, Table 15
  IC50: 600 ± 80 nM
EGFR siRNA-1, Table 24
  IC50: 2110 ± 100 nM
EGFR siRNA-2 + EGF, Table 26
  IC50: 2330 ± 110 nM
EGFR siRNA-2, Table 24
  IC50: 2790 ± 70 nM
EGFR siRNA-2, Table 26
  IC50: 2730 ± 100 nM
TGF 200 ng/mL + 1 μM PD174265, Table 20
  IC50: 1490 ± 40 nM
TGF 200 ng/mL, Table 20
  IC50: 500 ± 40 nM
TGF pre-treatment 4 hours, Table 15
  IC50: 590 ± 70 nM
Cells treated with IGF, FGF, HGF, VEGF or PGF relative to PS-ASO alone (data not shown)
  half maximal inhibitory concentration, Drosha: unchanged
